The values that follow come from ChEMBL document CHEMBL1142824, “Discovery of a novel, potent and selective human beta3-adrenergic receptor agonist” (Bioorg Med Chem Lett, 2005).

For series [1], the target named is Beta-3 adrenergic receptor (Homo sapiens, UniProt P13945). As to the kind of experiment: Agonistic activity was assessed by measuring cAMP accumulation in CHO cell lines expressing cloned human Beta-3 adrenergic receptor. The series is classed as functional, cell-based. (Cyclic AMP is a second messenger, typically raised through Gs and lowered through Gi signalling.)

The target in series [2] is Beta-1 adrenergic receptor (Homo sapiens, UniProt P08588).
Description: Agonistic activity was assessed by measuring cAMP accumulation in CHO cell lines expressing cloned human Beta-1 adrenergic receptor
Series [3] in a line: Maximum plasma concentration after orally administered dose of 3.2 mg/kg. Further details: dose 3.2 mg/kg, route oral. The format is ADME, organism-based. The conditions noted are these: rat, po.
The nature of series [4]: Total clearance rate after intravenous dose of 0.32 mg/kg. The series is classed as ADME, organism-based, Canis lupus familiaris. Further details: dose 0.32 mg/kg, route intravenous. To be noted: dog, in vivo, read-out: CLtot.
Series [5] can be described thus: Half life of compound after intravenous dose of 0.32 mg/kg. The format is ADME, organism-based, Canis lupus familiaris. Set-up: dose 0.32 mg/kg, route intravenous. The conditions noted are these: dog, in vivo.
A short description of series [6]: Area under concentration-time curve after orally administered dose of 0.32 mg/kg. The format is ADME, organism-based, Canis lupus familiaris. Set-up: dose 0.32 mg/kg, route oral. To be noted: dog, in vivo, po.
Series [7] addresses Beta-2 adrenergic receptor (Homo sapiens, UniProt P07550). The experiment in a line: Agonistic activity was assessed by measuring cAMP accumulation in CHO cell lines expressing cloned human Beta-2 adrenergic receptor. The format is functional, cell-based.
Series [8] is described as follows: Percent bioavailability after intravenous dose of 0.32 mg/kg. The conditions noted are these: dog, in vivo. The format is ADME, organism-based, Canis lupus familiaris.
The nature of series [9]: Total clearance rate after intravenous dose of 1 mg/kg. To be noted: rat, in vivo, read-out: CLtot. Set-up: dose 1 mg/kg, route intravenous. The series is classed as ADME, organism-based.
Series [10] can be described thus: Percent bioavailability after intravenous dose of 1 mg/kg. The conditions noted are these: rat, in vivo. The format is ADME, organism-based.
Series [11] is described as follows: Half life of compound after intravenous dose of 1 mg/kg. The format is ADME, organism-based. Set-up: dose 1 mg/kg, route intravenous. The conditions noted are these: rat, in vivo.
Series [12] is described as follows: Maximum plasma concentration after orally administered dose of 0.32 mg/kg. Set-up: dose 0.32 mg/kg, route oral. The conditions noted are these: dog, po. The series is classed as ADME, organism-based, Canis lupus familiaris.
The target in series [13] is Beta-2 adrenergic receptor and beta-3 adrenergic receptor (Homo sapiens) (UniProt P07550+P13945). The experiment in a line: Ratio of agonistic activity to produce cAMP by stimulating beta-2 and beta-3 adrenergic receptor in chinese hamster ovary cells. The series is classed as functional, cell-based.
Series [14] can be described thus: Area under concentration-time curve after orally administered dose of 3.2 mg/kg. The series is classed as ADME, organism-based. The conditions noted are these: rat, in vivo, po. Set-up: dose 3.2 mg/kg, route oral.

Chain of Beta-1 adrenergic receptor (P08588 whole entry): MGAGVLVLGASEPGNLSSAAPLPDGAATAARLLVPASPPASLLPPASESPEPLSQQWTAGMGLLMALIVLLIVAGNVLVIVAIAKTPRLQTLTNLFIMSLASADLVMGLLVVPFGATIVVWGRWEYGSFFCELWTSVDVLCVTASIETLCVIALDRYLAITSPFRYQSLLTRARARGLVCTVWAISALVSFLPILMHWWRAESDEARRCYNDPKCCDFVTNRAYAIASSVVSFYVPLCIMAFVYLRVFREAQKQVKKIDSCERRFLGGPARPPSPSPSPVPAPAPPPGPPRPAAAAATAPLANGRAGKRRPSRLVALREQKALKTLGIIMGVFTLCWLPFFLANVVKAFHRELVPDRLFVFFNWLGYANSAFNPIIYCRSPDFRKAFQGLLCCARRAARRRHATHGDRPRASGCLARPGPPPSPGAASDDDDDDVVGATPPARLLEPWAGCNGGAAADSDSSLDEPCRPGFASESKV
Chain of Beta-3 adrenergic receptor (P13945 whole entry): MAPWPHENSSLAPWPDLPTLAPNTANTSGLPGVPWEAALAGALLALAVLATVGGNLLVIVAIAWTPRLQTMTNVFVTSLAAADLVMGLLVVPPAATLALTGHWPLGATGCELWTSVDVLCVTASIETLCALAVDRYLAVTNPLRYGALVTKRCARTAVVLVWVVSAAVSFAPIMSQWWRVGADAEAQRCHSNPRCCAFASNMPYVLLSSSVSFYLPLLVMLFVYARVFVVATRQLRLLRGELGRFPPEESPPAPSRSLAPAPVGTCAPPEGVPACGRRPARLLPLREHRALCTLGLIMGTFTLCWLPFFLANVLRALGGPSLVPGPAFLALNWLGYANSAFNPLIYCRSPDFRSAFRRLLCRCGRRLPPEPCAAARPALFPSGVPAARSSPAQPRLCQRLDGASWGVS
Chain of Beta-2 adrenergic receptor (P07550 whole entry): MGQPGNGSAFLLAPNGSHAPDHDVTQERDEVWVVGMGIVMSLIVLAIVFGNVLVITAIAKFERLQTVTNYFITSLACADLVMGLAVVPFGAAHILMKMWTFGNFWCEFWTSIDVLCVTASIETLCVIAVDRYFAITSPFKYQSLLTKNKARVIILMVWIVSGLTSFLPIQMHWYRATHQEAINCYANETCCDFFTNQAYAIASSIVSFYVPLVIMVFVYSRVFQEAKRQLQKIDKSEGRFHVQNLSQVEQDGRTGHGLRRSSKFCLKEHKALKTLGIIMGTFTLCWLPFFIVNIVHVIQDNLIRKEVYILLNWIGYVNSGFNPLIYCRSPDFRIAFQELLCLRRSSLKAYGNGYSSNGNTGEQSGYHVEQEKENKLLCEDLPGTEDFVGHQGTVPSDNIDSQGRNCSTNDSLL

With `O=C(Nc1ccc(C[C@@H](CO)NC[C@H](O)COc2ccccc2)cc1)NC1CCCCC1`, the results for the EC50 in [1] and in [2] were 2.1 nM and 15 nM, respectively.
Take `O=C(Nc1ccccc1)Nc1ccc(C[C@@H](CO)NC[C@H](O)c2cccc(Cl)c2)cc1`: a half-maximal effect in [1] (EC50) was put at 74 nM.
Take `COc1ccc(NC(=O)Nc2ccc(C[C@@H](CO)NC[C@H](O)COc3ccccc3)cc2)cc1`: the EC50 (as a rule, the concentration needed to bring the measured effect to its halfway point) stood at 2.5 nM in series [1] and 2.2 nM in series [2].
Consider `O=C(Nc1ccccc1)Nc1ccc(C[C@@H](CO)NC[C@H](O)COc2cccc3[nH]c4ccccc4c23)cc1`, for which the EC50 in series [1] was 22 nM. This counts as double-digit nanomolar.
As to `CCCNC(=O)Nc1ccc(C[C@@H](CO)NC[C@H](O)COc2ccccc2)cc1`, the EC50 amounted to 8.3 nM in series [1] and 51 nM in [2].
As to `CC(C)NC(=O)Nc1ccc(C[C@@H](CO)NC[C@H](O)COc2ccccc2)cc1`, the EC50 stood at 4.9 nM in [1] and 27 nM in [2].
Take `O=C(Nc1ccc(C[C@@H](CO)NC[C@H](O)COc2ccccc2)cc1)Nc1cccc([N+](=O)[O-])c1`: the EC50 was 1 nM in series [1] and 0.9 nM in series [2].
Take `O=C(Nc1ccccc1)Nc1ccc(CCNC[C@H](O)COc2ccccc2)cc1`: the values for the EC50 in series [1] and in series [2] were 1.6 nM and 3.6 nM, respectively.
With `O=C(Nc1ccc(C[C@@H](CO)NC[C@H](O)COc2ccccc2)cc1)Nc1cccc(C(=O)O)c1`, the EC50 in series [1] worked out at 1.5 nM; in [2], 1.3 nM.
Consider `COc1cccc(NC(=O)Nc2ccc(C[C@@H](CO)NC[C@H](O)COc3ccccc3)cc2)c1`, for which the EC50 in series [1] is 0.8 nM; in series [2] it was 4 nM.
For the compound `COc1ccccc1NC(=O)Nc1ccc(C[C@@H](CO)NC[C@H](O)COc2ccccc2)cc1`, the EC50 in series [1] is 1.1 nM; in [2] it was 12 nM.
Turning to `O=C(Nc1ccccc1)Nc1ccc(C[C@@H](CO)NC[C@H](O)COc2ccccc2)cc1`, the Cmax (as a rule, the peak of the concentration-time curve) was 4.2 ng/mL in series [3] and 52.6 ng/mL in series [12]. Moreover, the EC50 in series [1] is 0.5 nM; in series [7], greater than 100 nM; in series [2] it was 20 nM. In addition, the results for the clearance in [4] and in series [9] were 24.2 mL/min/kg and 142 mL/min/kg, respectively. Further, the half-life (in general, how long it takes for the measured level to halve) in series [5] is 8.1 h. The AUC (commonly the area under the concentration-time curve, a measure of exposure) amounted to 140 ng·h/mL in series [6] and 4.2 ng·h/mL in series [14]. In addition, the bioavailability (in general, the share of a dose that reaches the circulation, judged against a reference dose that is usually intravenous) in series [8] was determined as 20.3%; in series [10], 1.1%. The compound further displayed a T1/2 in series [11] of 1.3 h. For the same compound, the Selectivity in series [13] is greater than 200.
